Test results: PMC9518264, “Design and synthesis of novel quinazolinone-based derivatives as EGFR inhibitors with antitumor activity” (Journal of Enzyme Inhibition and Medicinal Chemistry, 2022)

Experiments:
MDA-MB-468 = assay: NCI 60 cell line antiproliferative screening (SRB), Breast cancer; conditions: Homo sapiens, MDA-MB-468, read-out: growth inhibition % (GI%)
A498 = assay: cells; type: cell-based; conditions: Homo sapiens, A498, read-out: growth inhibition % (GI%)
PC-3 = assay: cells; type: cell-based; conditions: Homo sapiens, PC-3, read-out: growth inhibition % (GI%)
SNB-19 = assay: cells; type: cell-based; conditions: Homo sapiens, SNB-19, read-out: growth inhibition % (GI%)
HS 578T = assay: cells; type: cell-based; conditions: Homo sapiens, Hs-578T, read-out: growth inhibition % (GI%)
SW-620 = assay: cells; type: cell-based; conditions: Homo sapiens, SW-620, read-out: growth inhibition % (GI%)
NCI-H460 = assay: cells; type: cell-based; conditions: Homo sapiens, NCI-H460, read-out: growth inhibition % (GI%)
HOP-92 = assay: cells; type: cell-based; conditions: Homo sapiens, HOP-92, read-out: growth inhibition % (GI%)
SK-OV-3 = assay: cells; type: cell-based; conditions: Homo sapiens, SK-OV-3, read-out: growth inhibition % (GI%)
SF-295 = assay: cells; type: cell-based; conditions: Homo sapiens, SF-295, read-out: growth inhibition % (GI%)
[1] = tested on: panel of 60 tumour cell lines; assay: NCI 60 cell line antiproliferative screening (SRB), whole panel or subpanels (means, ranges, words); type: cell-based, human; conditions: Homo sapiens, 60 cell, mean over the cell line panel; 10 μM; read-out: Mean growth inhibition % (mean GI%)
MOLT-4 = assay: cells; type: cell-based; conditions: Homo sapiens, MOLT-4, read-out: growth inhibition % (GI%)
MDA-MB-231/ATCC = assay: NCI 60 cell line antiproliferative screening (SRB), Breast cancer; type: cell-based; conditions: Homo sapiens, MDA-MB-231, read-out: growth inhibition % (GI%)
COLO-205 = assay: cells; type: cell-based; conditions: Homo sapiens, COLO 205, read-out: growth inhibition % (GI%)
MCF7 = assay: cells; type: cell-based; conditions: Homo sapiens, MCF7, read-out: growth inhibition % (GI%)
UACC-62 = assay: cells; type: cell-based; conditions: Homo sapiens, UACC-62, read-out: growth inhibition % (GI%)
CCRF-CEM = assay: cells; type: cell-based; conditions: Homo sapiens, read-out: growth inhibition % (GI%)
SN12C = assay: cells; type: cell-based; conditions: Homo sapiens, read-out: growth inhibition % (GI%)
A549/ATCC = assay: cells; type: cell-based; conditions: Homo sapiens, A549, read-out: growth inhibition % (GI%)
ACHN = assay: cells; type: cell-based; conditions: Homo sapiens, read-out: growth inhibition % (GI%)
EKVX = assay: cells; type: cell-based; conditions: Homo sapiens, read-out: growth inhibition % (GI%)
SF-539 = assay: cells; type: cell-based; conditions: Homo sapiens, SF-539, read-out: growth inhibition % (GI%)
UO-31 = assay: cells; type: cell-based; conditions: Homo sapiens, UO-31, read-out: growth inhibition % (GI%)
MDA-MB-435 = assay: cells; type: cell-based; conditions: Homo sapiens, MDA-MB-435, read-out: growth inhibition % (GI%)
NCI-H322M = assay: cells; type: cell-based; conditions: Homo sapiens, read-out: growth inhibition % (GI%)
LOX IMIV = assay: cells; type: cell-based; conditions: Homo sapiens, 60 cell, read-out: growth inhibition % (GI%)
SR = assay: cells; type: cell-based; conditions: Homo sapiens, read-out: growth inhibition % (GI%)
T-47D = assay: cells; type: cell-based; conditions: Homo sapiens, T47D, read-out: growth inhibition % (GI%)
HCT-116 = assay: cells; type: cell-based; conditions: Homo sapiens, HCT-116, read-out: growth inhibition % (GI%)
DU-145 = assay: cells; type: cell-based; conditions: Homo sapiens, DU-145, read-out: growth inhibition % (GI%)
HT29 = assay: cells; type: cell-based; conditions: Homo sapiens, HT-29, read-out: growth inhibition % (GI%)
OVCAR-8 = assay: cells; type: cell-based; conditions: Homo sapiens, OVCAR-8, read-out: growth inhibition % (GI%)
MALME-3M = assay: cells; type: cell-based; conditions: Homo sapiens, Malme-3M, read-out: growth inhibition % (GI%)
SK-MEL-28 = assay: cells; type: cell-based; conditions: Homo sapiens, SK-MEL-28, read-out: growth inhibition % (GI%)
SK-MEL-2 = assay: cells; type: cell-based; conditions: Homo sapiens, SK-MEL-2, read-out: growth inhibition % (GI%)
RPMI-8226 = assay: cells; type: cell-based; conditions: Homo sapiens, RPMI-8226, read-out: growth inhibition % (GI%)
SK-MEL-5 = assay: cells; type: cell-based; conditions: Homo sapiens, SK-MEL-5, read-out: growth inhibition % (GI%)
BT-549 = assay: cells; type: cell-based; conditions: Homo sapiens, BT-549, read-out: growth inhibition % (GI%)
IGROV1 = assay: cells; type: cell-based; conditions: Homo sapiens, IGROV-1, read-out: growth inhibition % (GI%)
U251 = assay: cells; type: cell-based; conditions: Homo sapiens, U-251, read-out: growth inhibition % (GI%)
786-0 = assay: cells; type: cell-based; conditions: Homo sapiens, 786-0, read-out: growth inhibition % (GI%)
K-562 = assay: cells; type: cell-based; conditions: Homo sapiens, K562, read-out: growth inhibition % (GI%)
KM12 = assay: cells; type: cell-based; conditions: Homo sapiens, KM12, read-out: growth inhibition % (GI%)
SF-268 = assay: cells; type: cell-based; conditions: Homo sapiens, SF-268, read-out: growth inhibition % (GI%)
NCI/ADR-RES = assay: cells; type: cell-based; conditions: Homo sapiens, read-out: growth inhibition % (GI%)
HOP-62 = assay: cells; type: cell-based; conditions: Homo sapiens, HOP-62, read-out: growth inhibition % (GI%)
OVCAR-5 = assay: cells; type: cell-based; conditions: Homo sapiens, OVCAR-5, read-out: growth inhibition % (GI%)

Question: Which results are given for `O=C(CSc1nc2ccccc2c(=O)n1-c1ccc(Cl)cc1)NN=Cc1ccc(N2CCCCC2)cc1` [6j, 2-((3–(4-chlorophenyl)-4-oxo-3,4-dihydroquinazolin-2-yl)thio)-N'-(4-(piperidin-1-yl)benzylidene) acetohydrazide]?
Answer: inhibition at 10 µM (MDA-MB-468): 20.5%; inhibition at 10 µM (A498): 21.5%; inhibition at 10 µM (PC-3): 21.4%; inhibition at 10 µM (SNB-19): 56.8%; inhibition at 10 µM (HS 578T): 62.1%; inhibition at 10 µM (SW-620): 34.1%; inhibition at 10 µM (NCI-H460): 90.3%; inhibition at 10 µM (HOP-92): 37.7%; inhibition at 10 µM (SK-OV-3): 69.9%; inhibition at 10 µM (SF-295): 23.6%; inhibition at 10 µM [1]: 34.2%; inhibition at 10 µM (MOLT-4): < 15%; inhibition at 10 µM (MDA-MB-231/ATCC): 28.1%; inhibition at 10 µM (COLO-205): 17.9%; inhibition at 10 µM (MCF7): 32.5%; inhibition at 10 µM (UACC-62): 26.5%; inhibition at 10 µM (CCRF-CEM): < 15%; inhibition at 10 µM (SN12C): 37.6%; inhibition at 10 µM (A549/ATCC): 50.6%; inhibition at 10 µM (ACHN): 82.6%; inhibition at 10 µM (EKVX): 17.9%; inhibition at 10 µM (SF-539): 58.7%; inhibition at 10 µM (UO-31): 47%; inhibition at 10 µM (MDA-MB-435): < 15%; inhibition at 10 µM (NCI-H322M): 23%; inhibition at 10 µM (LOX IMIV): 56.5%; inhibition at 10 µM (SR): 25.2%; inhibition at 10 µM (T-47D): 25.4%; inhibition at 10 µM (HCT-116): 63.1%; inhibition at 10 µM (DU-145): 70.9%; inhibition at 10 µM (HT29): 39.1%; inhibition at 10 µM (OVCAR-8): 34.7%; inhibition at 10 µM (MALME-3M): 35.8%; inhibition at 10 µM (SK-MEL-28): 15.2%; inhibition at 10 µM (SK-MEL-2): < 15%; inhibition at 10 µM (RPMI-8226): < 15%; inhibition at 10 µM (SK-MEL-5): < 15%; inhibition at 10 µM (BT-549): < 15%; inhibition at 10 µM (IGROV1): 44.5%; inhibition at 10 µM (U251): 49.4%; inhibition at 10 µM (786-0): 92.8%; inhibition at 10 µM (K-562): 26.4%; inhibition at 10 µM (KM12): 3.59%; inhibition at 10 µM (SF-268): 65.3%; inhibition at 10 µM (NCI/ADR-RES): 60.1%; inhibition at 10 µM (HOP-62): 81.6%; inhibition at 10 µM (OVCAR-5): 23.1%
